For orientation: IC50 means the concentration that gives 50% inhibition.

Among the data in ChEMBL document CHEMBL5649167, “The SUV4-20 inhibitor A-196 verifies a role for epigenetics in genomic integrity” (Nat Chem Biol, 2017) are IC50 values, retold here.

The target of assay [1] is Histone-lysine N-methyltransferase KMT5B (Homo sapiens, UniProt Q4FZB7). Briefly: Inhibition of recombinant human 6His-(Tev)-G-SUV420H1 (69 to 335 residues) using Biotin-tagged H4K20me1 and [3H-SAM] as substrate incubated for 2 hrs by scintillation proximity assay. In general terms: SPA uses beads or plates that emit light when radiolabelled molecules are held near them.
Chain of Histone-lysine N-methyltransferase KMT5B (Q4FZB7 whole entry, the tested form may be a part): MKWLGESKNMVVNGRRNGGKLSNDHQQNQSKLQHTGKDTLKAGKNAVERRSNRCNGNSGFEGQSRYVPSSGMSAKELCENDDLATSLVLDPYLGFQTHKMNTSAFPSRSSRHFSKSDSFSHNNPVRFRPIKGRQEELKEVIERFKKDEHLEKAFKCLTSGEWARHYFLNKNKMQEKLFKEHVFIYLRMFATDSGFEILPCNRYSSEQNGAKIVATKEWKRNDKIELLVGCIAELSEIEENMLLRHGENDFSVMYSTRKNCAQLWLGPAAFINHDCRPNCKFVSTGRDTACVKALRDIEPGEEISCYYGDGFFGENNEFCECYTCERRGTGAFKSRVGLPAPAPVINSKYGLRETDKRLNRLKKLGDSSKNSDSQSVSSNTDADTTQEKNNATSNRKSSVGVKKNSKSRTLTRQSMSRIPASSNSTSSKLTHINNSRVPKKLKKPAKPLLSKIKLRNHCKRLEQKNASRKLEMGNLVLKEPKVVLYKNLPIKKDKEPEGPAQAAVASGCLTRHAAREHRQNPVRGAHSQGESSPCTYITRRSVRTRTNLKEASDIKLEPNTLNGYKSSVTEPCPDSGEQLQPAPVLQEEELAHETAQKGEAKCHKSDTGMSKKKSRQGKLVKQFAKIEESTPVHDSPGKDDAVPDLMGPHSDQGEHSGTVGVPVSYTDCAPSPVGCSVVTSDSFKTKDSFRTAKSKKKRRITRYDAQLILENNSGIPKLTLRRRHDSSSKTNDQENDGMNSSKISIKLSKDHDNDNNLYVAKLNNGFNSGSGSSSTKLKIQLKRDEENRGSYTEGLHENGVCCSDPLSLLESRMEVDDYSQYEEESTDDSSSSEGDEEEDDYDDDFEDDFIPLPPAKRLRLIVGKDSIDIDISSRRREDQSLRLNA

Assay [2] concerns the target Histone-lysine N-methyltransferase KMT5C (Homo sapiens, UniProt Q86Y97). Briefly: Inhibition of human SUV420H2 using Biotin-tagged H4K20me1 and [3H-SAM] as substrate incubated for 2 hrs by scintillation proximity assay.

Chain of Histone-lysine N-methyltransferase KMT5C (Q86Y97 whole entry): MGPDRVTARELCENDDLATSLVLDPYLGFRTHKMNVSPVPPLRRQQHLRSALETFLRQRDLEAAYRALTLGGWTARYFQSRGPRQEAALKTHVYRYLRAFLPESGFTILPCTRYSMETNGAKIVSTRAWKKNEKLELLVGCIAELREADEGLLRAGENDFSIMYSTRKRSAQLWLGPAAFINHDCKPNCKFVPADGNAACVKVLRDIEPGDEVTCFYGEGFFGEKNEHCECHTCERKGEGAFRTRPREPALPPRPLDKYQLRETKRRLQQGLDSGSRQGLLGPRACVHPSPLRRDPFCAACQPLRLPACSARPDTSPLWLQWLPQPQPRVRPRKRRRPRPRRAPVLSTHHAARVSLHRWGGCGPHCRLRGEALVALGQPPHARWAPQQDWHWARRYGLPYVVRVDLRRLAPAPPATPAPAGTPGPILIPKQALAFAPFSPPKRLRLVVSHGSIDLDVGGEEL

On to `Clc1ccc2c(NC3CCCC3)ccnc2c1`, for which the IC50 came to 5.9 µM in assay [1] and 4.8 µM in assay [2].
Take `Clc1cc2nccc(NC3CCCC3)c2cc1Cl`: the IC50 in assay [1] is 0.59 µM; in assay [2], 1.2 µM.
